Patent US5872015A, “Molecular diversity screening method” (Board of Trustees of the University of Illinois, priority 1996, dated 1999)

How the values were obtained:
[1] = target: T1, Calf intestinal adenosine deaminase (Bos taurus, UniProt P56658)
T1 sequence (P56658 1-363): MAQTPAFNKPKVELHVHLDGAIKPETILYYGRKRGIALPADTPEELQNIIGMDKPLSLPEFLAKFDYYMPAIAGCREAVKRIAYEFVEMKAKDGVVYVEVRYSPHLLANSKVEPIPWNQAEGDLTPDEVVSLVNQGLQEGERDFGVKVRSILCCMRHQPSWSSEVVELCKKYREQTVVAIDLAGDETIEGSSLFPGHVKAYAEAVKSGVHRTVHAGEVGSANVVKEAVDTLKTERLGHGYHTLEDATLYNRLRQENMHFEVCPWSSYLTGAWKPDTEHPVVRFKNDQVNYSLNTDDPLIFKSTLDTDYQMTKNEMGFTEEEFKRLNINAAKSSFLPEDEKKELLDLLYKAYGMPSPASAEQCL
Procedure: Calf intestinal adenosine deaminase (or another type of adenosine deaminase) is loaded into the molecular diversity screening device (equipped with a 10,000 molecular weight cutoff membrane) to a concentration of approximately 10 nM. A library of 20 adenosine analogs was prepared including the natural substrate for adenosine deaminase, adenosine (See list of compounds in Table 1).
Next, the adenosine analog library was mixed with adenosine deaminase (in a 1:1 molar ratio) in 33 mM ammonium acetate buffer at pH 7.4, and an aliquot was injected into the molecular diversity screening device to achieve a concentration of adenosine deaminase of approximately 10 nM. After flushing the binding chamber with water at 100 μL/min for 12 min, to wash out library compounds with low affinity for adenosine deaminase, methanol/water (50:50) was pumped through the chamber at 50 μL/min. The latter procedure should perturb binding of any remaining compounds bound to the adenosine deaminase and release them into the detector.

[2] = target: T1, Calf intestinal adenosine deaminase; test: Selective identification of adenosine deaminase binders from a synthetic library of EHNA-type analogs (ultrafiltration, electrospray MS); assay type: binding; conditions: for detected eluting from the device in the recovery phase: scan mode, positive ion electrospray MS, ADA 7.35 μM, approximately 10 nM each analog, pH 7.4, methanol/water 90:10; for presence of ion in the recovery phase in the presence of ADA / binding to ADA in the presence of a five-fold excess of EHNA: single ion monitoring mode; for presence of ion in the recovery phase in the presence of ADA: with ADA (FIG. 11B); for binding to ADA in the presence of a five-fold excess of EHNA: with ADA and five-fold excess of authentic EHNA (FIG. 11C)
[3] = test system: adenosine deaminase (ADA); conditions: EHNA 2×10^-8 M continuous influx; ADA 10^-7 M; 33 mM ammonium acetate; release by 25 μL MeOH, three cases
Procedure: At about 10 min, 25 μL of MeOH is injected into the binding chamber resulting in an increase in EHNA--the first peak on the left. This signal is due to an enhanced sensitivity of the detector to EHNA in the presence of MeOH and/or due to release of non-specifically bound EHNA from the device and its parts. At about 40 min, the receptor ADA, in 33 mM ammonium acetate buffer, is introduced into the binding chamber until a receptor concentration of 10^-7 M is reached. […] At about 90 min, 25 μL of MeOH is again introduced to perturb binding and release of EHNA is observed. […] This process is repeated a third time at about 180 min. […] At about 230 min the ADA is removed from the binding chamber by opening the binding chamber wash port 9.

[4] = target: adenosine deaminase (ADA); conditions: cited from earlier work
bovine serum albumin = test: Extraction of pentachlorophenol by bovine serum albumin in the molecular diversity screening device (pulsed ultrafiltration, electrospray MS); assay type: binding
Procedure: The receptor concentration is chosen to be about 100 times the smallest dissociation constant being sought. […] The binding chamber is then washed with binding buffer (i.e., 100 Mm ammonium acetate at Ph 7.4) at 100 μL/min to wash out any low molecular weight impurities. The compound, in this case pentachlorophenol (equimolar or less with respect to the serum albumin in the binding chamber) is then injected into the binding chamber, and elution of pentachlorophenol is monitored using an appropriate detector such as UV absorbance or an electrospray mass spectrometer. An example of the extraction of pentachlorophenol from a binding buffer by bovine serum albumin is shown in FIG. 7 using electrospray mass spectrometric detection.
When pentachlorophenol is injected into the binding chamber without serum albumin present, an abundant peak is detected by the mass spectrometer as pentachlorophenol flows through the device unimpeded (FIG. 7, solid curve). […] Retention of pentachlorophenol in the binding chamber corresponds to tight binding to serum albumin under the predicted concentrations.

serum albumin = conditions: albumin-pentachlorophenol; read-out: dissociation constant; cited from earlier work

SMILES | detected eluting from the device in the recovery phase [2] | presence of ion in the recovery phase in the presence of ADA [2] | binding to ADA in the presence of a five-fold excess of EHNA [2] | further results
CCCCCC[C@H]([C@H](C)O)n1cnc2c(N)ncnc21 (relative stereo) [EHNA, erythro-9-(2-hydroxy-3-nonyl)adenine] | detected | present | – | detected eluting from the binding chamber on release with methanol/water (50:50) ([1]; ADA approximately 10 nM, 33 mM ammonium acetate pH 7.4, EHNA at 20-fold lower concentration than other compounds): detected; affinity for adenosine deaminase within the library ([1]; library of 20 adenosine analogs): highest affinity; binding to and release from ADA [3]: released after being bound to the ADA; Kd ([4]; read-out: dissociation constant, North, et al., 1979): 7 nM; Ki ([4]; read-out: inhibitor dissociation constant, potent inhibitor of adenosine deaminase, no source given): 2 nM
CC(O)C(Cc1ccccc1)n1cnc2c(N)ncnc21 (centres unmarked) [benzylic] | not detected | did not appear | – | –
CC(C)CC(C(C)O)n1cnc2c(N)ncnc21 (centres unmarked) [isobutyl] | not detected | did not appear | – | –
CCCCCCCCC(C(C)O)n1cnc2c(N)ncnc21 (centres unmarked) [nC7 H15] | detected | present | suppressed | –
CCCCCCCCCCC(C(C)O)n1cnc2c(N)ncnc21 (centres unmarked) [nC10 H21] | detected | present | suppressed | –
Oc1c(Cl)c(Cl)c(Cl)c(Cl)c1Cl [pentachlorophenol] | – | – | – | extraction from the solution by the albumin receptor molecule (bovine serum albumin; 100 mM ammonium acetate pH 7.4, unstirred 100 μL chamber, albumin approximately 1 μM): almost completely extracted; pentachlorophenol detected by the mass spectrometer after injection with albumin loaded (bovine serum albumin; bovine serum albumin in chamber (FIG. 7, dashed curve)): only a trace; Kd (serum albumin): ~10 nM
